# In patent US20080233621A1, “Method For Producing Alcohol and Carboxylic Acid Having Optical Activity” (API Corporation, priority 2004, published 2008):
# Tested on: carbonyl reductase IsADH1
# Test: Substrate specificity of IsADH1: carbonyl reductase activity by NADPH consumption (absorbance at 340 nm)
# Type: biochemical, Issatchankia scutulata var. scutulata JCM1828 strain
# Set-up: key: —: Activity cannot be detected; Trace: a slight level of activity is detected
# Conditions: purified carbonyl reductase, 2 mM substrate, 0.32 mM NADPH, 100 mM Tris-HCl (pH 7.5), 37° C.; activity to 1-acetoxy-3-chloro-2-propanone defined as 100
# Description: The Issatchankia scutulata var. scutulata JCM1828 strain was cultured in 2 L of a medium (80 g of glucose, 20 g of yeast extract (manufactured by Difco), and 40 g/L peptone (manufactured by Kyokuto Pharmaceutical Industrial Co., Ltd.)), and a cell mass was then prepared by centrifugation. 150 g of the obtained wet cell mass was suspended in 10 mM potassium phosphate buffer (pH 7) and 0.1 mM DTT (hereinafter simply referred to as a “buffer”), and it was then crushed with DYNO-MILL KDL (manufactured by Shimaru Enterprises Corp.). Thereafter, the cell mass residue was eliminated by centrifugation, so as to obtain a cell-free extract. Thereafter, PEG6000 was added to the cell-free extract to a concentration of 90 g/L, and the obtained mixture was then left at rest at 4° C. for 1 hour. Thereafter, the precipitate was eliminated by centrifugation. The obtained supernatant was then subjected to anion exchange chromatography using DEAE Sepharose Fast Flow (manufactured by Amersham Biosciences), hydrophobic interaction chromatography using Butyl Sepharose 4 Fast Flow (manufactured by Amersham Biosciences), anion exchange chromatography using MonoQ (manufactured by Amersham Biosciences), and Gel filtration chromatography using Superdex 200 (manufactured by Amersham Biosciences), so that carbonyl reductase of interest could be purified to a single band in electrophoresis.
# During purification, the activity of carbonyl reductase was measured by reacting the reaction solution containing an enzyme solution (100 mM Tris-HCl (pH 7.5), 0.32 mM NADPH, and 2 mM 1-acetoxy-3-chloro-2-propanone) at 37° C. and then calculating the amount of NADPH consumed based on a decrease in the absorbance at 340 nm. For the measurement of the absorbance, SPECTRAmax 190 (manufactured by Molecular Devices) was used. It is to be noted that the activity necessary for consuming 1 nmol of NADPH for 1 minute in the aforementioned reaction was defined as 1 U.
# With regard to various carbonyl compounds, a reaction solution (100 mM Tris-HCl (pH 7.5), 0.32 mM NADPH, and a 2 mM substrate) containing the carbonyl reductase solution purified in (2) above was prepared, and it was reacted at 37° C. The amount of NADPH consumed in the reaction solution was monitored based on the absorbance at 340 nm, so as to measure carbonyl reductase activity to each compound. For the measurement of the absorbance, SPECTRAmax 190 (manufactured by Molecular Devices) was used. The relative activity of carbonyl reductase to each substrate compound obtained when carbonyl reductase activity to 1-acetoxy-3-chloro-2-propanone was defined as 100 is shown in Table 4.
row,SMILES,Relative activity
1,CC(=O)OCC(=O)CCl [1-acetoxy-3-chloro-2-propanone],100
2,"O=C(c1ccccc1)C(F)(F)F [2,2,2-trifluoroacetophenone]",53.8
3,"CCC(=O)C(C)=O [2,3-pentadione]",Trace
4,O=C1CC2CCC1C2 (centres unmarked) [2-norbornanone],—
5,CCC(=O)c1cccnc1 [3-propionylpyridine],11.2
6,O=C1CN2CCC1CC2 [3-quinuclidinone],Trace
7,CC(=O)C(C)O (centres unmarked) [Acetoin],—
8,CC(=O)c1ccccc1 [Acetophenone],—
9,CC(=O)C(C)=O [Diacetyl],—
10,CCOC(=O)C(=O)C(C)C [Ethyl 3-methyl-2-oxobutylate],Trace
11,CCOC(=O)CC(C)=O [Ethyl 3-oxobutyrate],25.5
12,CCOC(=O)CC(=O)CCl [Ethyl 4-chloro-3-oxobutyrate],212
13,CCOC(=O)CC(=O)c1ccccc1 [Ethyl benzoylacetate],Trace
14,CCOC(=O)CC(=O)c1cccnc1 [Ethyl nicotinoylacetate],20.7
15,CCOC(=O)C(C)=O [Ethyl pyruvate],Trace
16,CC(=O)COc1ccccc1 [Phenoxyacetone],—
17,O=C(O)C(=O)Cc1ccccc1 [Phenylpyruvic acid],12.2
18,CCC(=O)c1ccccc1 [Propiophenone],Trace
19,O=Cc1ccc(Cl)cc1 [p-chlorobenzaldehyde],58.0
20,O=Cc1ccc(O)cc1 [p-hydroxybenzaldehyde],—
